Results taken from US20190136321A1, “USE OF TRANSLATIONAL PROFILING TO IDENTIFY TARGET MOLECULES FOR THERAPEUTIC TREATMENT” (The Regents of The University of California, priority 2013, published 2019).

How the values were obtained:
Snail1, LEF1 and Twist1 = experiment: Snail1 immunocytochemistry, LEF1/Twist1 Western blot and qPCR (YB1 target genes); type: cell-based, human; settings: PC3 cells, 200 nM
Procedure: (§1) Western blot analysis was performed as previously described (Hsieh et al., Cancer Cell 17:249-261 (2010)) with antibodies specific to phospho-AKT^S473 (Cell Signaling), AKT (Cell Signaling), phospho-p70S6K^T389 (Cell Signaling), phospho-rpS6^S240/244 (Cell Signaling), rpS6 (Cell Signaling), phospho-4EBP1^T37/46 (Cell Signaling), 4EBP1 (Cell Signaling), 4EBP2 (Cell Signaling), YB1 (Cell Signaling), CD44 (Cell Signaling), LEF1 (Cell Signaling), PTEN (Cell Signaling), eEF2 (Cell Signaling), GAPDH (Cell Signaling), vimentin (BD Biosciences), eIF4E (BD Biosciences), Flag (Sigma), β-actin (Sigma), MTA1 (Santa Cruz Biotechnology), Twist (Santa Cruz Biotechnology), rpL28 (Santa Cruz Biotechnology), HA (Covance) and rictor (Bethyl Laboratory).
RNA was isolated using the manufacturer's protocol for RNA extraction with TRIzol Reagent (Invitrogen) using the Pure Link RNA mini kit (Invitrogen). RNA was DNase-treated with Pure Link Dnase (Invitrogen). DNase-treated RNA was transcribed to cDNA with SuperScript III First-Strand Synthesis System for RT-PCR (Invitrogen), and 1 μl of cDNA was used to run a SYBR green detection qPCR assay (SYBR Green Supermix and MyiQ2, Biorad). […]
Appropriately transfected or treated PC3 cells were plated on a poly-L-lysine-coated chamber slide (Lab-Tek) and cultured for 48 hr. […] Image capture and quantification were completed as described below (see “Immunofluorescence”).

[1] = tested on: MDA-MB-361, SKOV3 and ACHN cells; experiment: Western blot and qPCR of 4-gene invasion signature in metastatic cell lines; type: cell-based, human; settings: MDA-MB-361, SKOV3, ACHN cells, 48-hour treatment, 200 nM
Procedure: as §1
RNA was isolated using the manufacturer's protocol for RNA extraction with TRIzol Reagent (Invitrogen) using the Pure Link RNA mini kit (Invitrogen). RNA was DNase-treated with Pure Link Dnase (Invitrogen). DNase-treated RNA was transcribed to cDNA with SuperScript III First-Strand Synthesis System for RT-PCR (Invitrogen), and 1 μl of cDNA was used to run a SYBR green detection qPCR assay (SYBR Green Supermix and MyiQ2, Biorad). Primers were used at 200 nM.

Pten^L/L mice = experiment: Pharmacological treatment of Pten^L/L mice (preclinical trial, prostate cancer); type: in vivo, mouse
Procedure: Pten^loxp/loxp and Pb-cre mice where obtained from Jackson Laboratories and Mouse Models of Human Cancers Consortium (MMHCC), respectively, and maintained in the C57BL/6 background. Mice were maintained under specific pathogen-free conditions, and experiments were performed in compliance with institutional guidelines as approved by the Institutional Animal Care and Use Committee of UCSF.
Weight measurements were taken every 3 days to monitor for toxicity. For the 28-day study, mice were imaged via […] at day 0 and day 28 in a 14-T GE MR scanner (GE Healthcare).
Whole mouse prostates were removed from wild-type and Pten^L/L mice, microdissected, and frozen in liquid nitrogen. Frozen tissues were subsequently manually disassociated using a biopulverizer (Biospec) and additionally processed for protein and mRNA analysis as described above.
Prostates and lymph nodes were dissected from mice within 2 hr of the indicated treatment and fixed in 10% formalin overnight at 4° C. Tissues were subsequently dehydrated in ethanol (Sigma) at room temperature, mounted into paraffin blocks, and sectioned at […] Specimens were de-paraffinized and rehydrated using CitriSolv (Fisher) followed by serial ethanol washes. […] Sections were washed in distilled water followed by TBS washes. The sections were then incubated in 5% goat serum, 1% BSA in TBS for 1 hr at room temperature. Various primary antibodies were used, including those specific for keratin 5 (Covance), cytokeratin 8 (Abcam and Covance), YB1 (Abcam), vimentin (Abcam), MTA1 (Cell signaling), CD44 (BD Pharmingen), and the androgen receptor (Epitomics), which were diluted 1:50-1:500 in blocking solution and incubated on sections overnight at 4° C. Specimens were then washed in TBS and incubated with the appropriate Alexa 488 and 594 labeled secondary (Invitrogen) at 1:500 for 2 hr at room temperature, with the exception of YB1 which was incubated with biotinylated anti-rabbit secondary (Vector) followed by incubation with Alexa 594 labeled Streptavidin (Invitrogen). A final set of washes in TBS was completed at room temperature followed by mounting with DAPI Hardset Mounting Medium (Vector Lab). A Zeiss Spinning Disc confocal (Zeiss, CSU-X1) was used to image the sections at 40×-100×. Individual prostate cells were quantified for mean fluorescence intensity (m.f.i.) using the Axiovision (Zeiss, Release 4.8) densitometric tool.
Mouse lymph nodes were processed as described above and stained for CK8 and androgen receptor. Lymph nodes were imaged using a Zeiss AX10 microscope. Metastases were identified and areas were measured using the Axiovision (Zeiss, Release 4.8) measurement tool.
Immunohistochemistry was performed as described above (see “Immunofluorescence”) with the exception that immediately after antigen […] and TBS washes, specimens were incubated in 3% hydrogen peroxide in TBS followed by TBS washes. The following primary antibodies were used: phospho-AKT^S473 (Cell Signaling), phospho-rpS6^S240/244 (Cell Signaling), phospho-4EBP1^T37/46 (Cell Signaling), phospho-histone H3 (Upstate), and cleaved caspase (Cell Signaling). This was followed by TBS washes and incubation with the appropriate biotinylated secondary antibody (Vector Lab) for 30 min at room temperature. An ABC-HRP Kit (Vector Lab) was used to amplify the signal, followed by a brief incubation in hydrogen peroxide. The protein of interest was detected using DAB (Sigma). Specimens were counterstained with haematoxylin (Thermo Scientific), dehydrated with Citrisolv (Fisher), and mounted with Cytoseal XYL (Vector Lab).
Paraffin-embedded prostate specimens were deparaffinized and rehydrated as described above (see “Immunofluorescence”), stained with haematoxylin (Thermo Scientific), and washed with water. This was followed by a brief incubation in differentiation RTU (VWR) and two washes with water followed by two 70% ethanol washes. […]

[2] = tested on: YB1, MTA1, vimentin, and CD44; experiment: Western blot and qPCR of mTOR-sensitive invasion genes in PC3 cells; type: cell-based, human; settings: starting at 6 hr of treatment
PC3 cells = experiment: Matrigel invasion assay; type: cell-based, human; settings: 6-hr pre-treatment followed by 6 hr of cell invasion
From the text: BioCoat Matrigel Invasion Chambers (modified Boyden Chamber Assay; BD Biosciences) were used according to the manufacturer's instructions.

[3] = Pten^L/L mice, ATP site inhibitor of mTOR 1 mg/kg daily, RAD001 10 mg/kg daily

CC(C)n1nc(-c2ccc3oc(N)nc3c2)c2c(N)ncnc21 [ATP site inhibitor of mTOR]
protein levels but not mRNA levels of YB1 target genes (Snail1, LEF1, Twist1) (Snail1, LEF1 and Twist1): decreases | 4-gene invasion signature response in metastatic cell lines [1]: responsive | prostate cancer volume (Pten^L/L mice; Pten^L/L mice, 1 mg/kg daily, 28-day treatment, MRI): marked reduction | decrease in prostatic intraepithelial neoplasia (PIN) lesions (Pten^L/L mice; Pten^L/L mice, 1 mg/kg daily, 28 days): 50% | 4EBP1 and p70S6K1/2 phosphorylation (Pten^L/L mice; Pten^L/L mice, 28 days, ATP site inhibitor of mTOR 1 mg/kg daily, RAD001 10 mg/kg daily): completely restored to wild-type levels | progression of invasive prostate cancer locally in the prostate gland (Pten^L/L mice; Pten^L/L mice, 60 days of treatment): completely blocked | total number and size of distant metastases (Pten^L/L mice; Pten^L/L mice, draining lymph nodes, 60 days of treatment): profoundly inhibited | apoptosis (cleaved caspase 3) (Pten^L/L mice; [3]): tenfold increase | proliferation (phospho-histone H3) (Pten^L/L mice; [3]): decreased | expression of YB1, vimentin, CD44, and MTA1 at the protein, but not transcript, level (Pten^L/L mice; specific epithelial cell types within pre-invasive PIN lesions in Pten^L/L mice): marked decrease | expression of YB1, MTA1, vimentin, and CD44 at the protein but not transcript level [2]: selective decrease | invasive potential of PC3 prostate cancer cells (PC3 cells): decreased
